Format in all cases: cell-based
One test deals with T1, BaF3 TELJAK3 cells (Homo sapiens, UniProt P52333).
T1 construct: fused on or other part: TEL (ETV6) N-terminal part, coding nucleotides 1-487, serves as the oligomerising partner; It is fused through a Sal I site to the JAK3 kinase domain and expressed from pTRE2 in BaF3 cells bearing pTET-off; P41212 (Transcription factor ETV6)
T1 sequence (P52333 1-1124): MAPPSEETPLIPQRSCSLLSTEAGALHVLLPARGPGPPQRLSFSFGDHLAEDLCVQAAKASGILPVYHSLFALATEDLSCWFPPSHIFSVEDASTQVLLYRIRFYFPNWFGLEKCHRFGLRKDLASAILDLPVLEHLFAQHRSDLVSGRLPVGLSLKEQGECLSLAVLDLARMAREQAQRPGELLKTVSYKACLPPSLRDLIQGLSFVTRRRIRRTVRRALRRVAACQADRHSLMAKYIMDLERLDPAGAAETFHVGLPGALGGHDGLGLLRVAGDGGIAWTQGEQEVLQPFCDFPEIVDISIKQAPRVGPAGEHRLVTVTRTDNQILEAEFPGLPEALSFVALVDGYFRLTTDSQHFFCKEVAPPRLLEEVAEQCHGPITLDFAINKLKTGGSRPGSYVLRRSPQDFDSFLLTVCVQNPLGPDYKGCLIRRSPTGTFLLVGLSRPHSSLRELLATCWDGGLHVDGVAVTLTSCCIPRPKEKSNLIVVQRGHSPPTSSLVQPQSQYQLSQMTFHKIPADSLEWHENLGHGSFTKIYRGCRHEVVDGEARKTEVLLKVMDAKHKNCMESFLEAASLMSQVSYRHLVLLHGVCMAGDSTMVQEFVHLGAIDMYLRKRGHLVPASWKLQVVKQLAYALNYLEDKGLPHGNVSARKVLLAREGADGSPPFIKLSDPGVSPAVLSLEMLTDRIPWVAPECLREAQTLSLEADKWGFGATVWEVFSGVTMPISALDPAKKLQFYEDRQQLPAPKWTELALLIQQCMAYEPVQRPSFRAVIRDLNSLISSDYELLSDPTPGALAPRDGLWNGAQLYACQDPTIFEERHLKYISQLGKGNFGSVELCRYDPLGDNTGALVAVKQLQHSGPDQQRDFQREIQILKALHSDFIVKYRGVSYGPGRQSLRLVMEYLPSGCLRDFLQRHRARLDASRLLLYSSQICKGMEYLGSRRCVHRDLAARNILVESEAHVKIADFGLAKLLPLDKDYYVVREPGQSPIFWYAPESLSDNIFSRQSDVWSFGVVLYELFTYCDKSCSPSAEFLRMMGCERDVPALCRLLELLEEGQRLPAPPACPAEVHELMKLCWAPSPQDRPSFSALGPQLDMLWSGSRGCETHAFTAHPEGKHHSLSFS
In words: Cellular screening, BaF3 TEL:JAK3 cells, Alamar Blue. Conditions: 40 hr, read-out: BafT_J3 IC50_nM. The method, boiled down:
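BaF3 cells carrying pTET-off and a TEL–JAK3 kinase-domain fusion, selected for growth-factor independence, were grown in DMEM with 10% Tet-approved FBS without WEHI 3B medium. Cells were exposed to compounds for 40 h at 37 °C, 5% CO2. Viability was read with Alamar Blue (4–6 h) at 544 nm.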

Another test concerns BaF3 wild-type cells. Description: Cellular screening, BaF3 wild-type cells, Alamar Blue. As to conditions: Mus musculus, 40 hr, read-out: BAF3wt IC50_nM. The gist of the method:
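Cells were cultured in DMEM with 10% FCS and 10% WEHI 3B conditioned medium, and suspensions were prepared at 1.1× final (50,000–200,000 cells/mL). Compounds from 20 μM dilution plates were added at 10× final and incubated for 40 hr at 37° C, 5% CO2. Alamar Blue was then added for 4–6 hours and read at 544 nm.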

The target in test [1] is T2, BaF3 TELJAK2 cells (BafT_J2) (Homo sapiens, UniProt O60674).
T2 construct: fused on or other part: TEL (ETV6) N-terminal part, coding nucleotides 1-487, serves as the oligomerising partner; It is fused through a Sal I site to the JAK2 kinase domain and expressed from pTRE2 in BaF3 cells bearing pTET-off; P41212 (Transcription factor ETV6)
T2 sequence (O60674 whole entry, change not shown, the tested form may be a part): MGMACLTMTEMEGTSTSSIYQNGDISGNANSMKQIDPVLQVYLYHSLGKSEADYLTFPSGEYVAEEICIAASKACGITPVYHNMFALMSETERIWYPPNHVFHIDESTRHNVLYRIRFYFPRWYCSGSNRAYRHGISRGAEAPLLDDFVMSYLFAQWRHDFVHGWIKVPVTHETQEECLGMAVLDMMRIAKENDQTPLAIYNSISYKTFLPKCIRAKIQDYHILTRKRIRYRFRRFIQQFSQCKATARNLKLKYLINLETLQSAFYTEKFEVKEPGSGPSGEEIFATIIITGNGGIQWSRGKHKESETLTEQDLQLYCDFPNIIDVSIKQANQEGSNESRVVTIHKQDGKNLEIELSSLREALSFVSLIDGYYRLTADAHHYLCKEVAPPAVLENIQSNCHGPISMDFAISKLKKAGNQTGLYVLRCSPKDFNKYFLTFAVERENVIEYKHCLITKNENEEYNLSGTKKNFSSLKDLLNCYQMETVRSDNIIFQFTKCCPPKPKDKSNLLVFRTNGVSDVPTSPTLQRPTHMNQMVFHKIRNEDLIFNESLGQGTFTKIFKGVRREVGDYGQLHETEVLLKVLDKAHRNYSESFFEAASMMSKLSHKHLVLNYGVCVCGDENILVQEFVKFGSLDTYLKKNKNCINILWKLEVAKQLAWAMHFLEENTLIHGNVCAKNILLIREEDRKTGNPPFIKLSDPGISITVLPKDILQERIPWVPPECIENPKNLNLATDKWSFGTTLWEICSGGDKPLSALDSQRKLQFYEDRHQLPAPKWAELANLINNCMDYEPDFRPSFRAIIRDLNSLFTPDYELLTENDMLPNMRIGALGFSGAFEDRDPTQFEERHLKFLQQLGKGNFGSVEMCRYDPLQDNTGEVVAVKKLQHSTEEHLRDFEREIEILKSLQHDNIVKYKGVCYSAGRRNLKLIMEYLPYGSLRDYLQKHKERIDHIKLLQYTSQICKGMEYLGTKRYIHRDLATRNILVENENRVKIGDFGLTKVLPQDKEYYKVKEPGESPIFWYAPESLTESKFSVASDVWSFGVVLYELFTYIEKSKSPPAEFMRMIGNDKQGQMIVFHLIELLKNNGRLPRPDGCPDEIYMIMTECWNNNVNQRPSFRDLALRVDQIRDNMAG
In words: Cellular screening, BaF3 TEL:JAK2 cells, Alamar Blue. Conditions: 40 hr, read-out: BafT_J2 IC50_nM. The method, boiled down: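 Tet-off BaF3 cells carrying a TEL (nt 1-487)–JAK2 kinase-domain fusion, grown factor-independently in DMEM with 10% Tet-approved FBS without WEHI 3B medium. Compounds were diluted to 20 μM in screening plates, and cells (50,000–200,000 cell/mL at 1.1×) were incubated 40 hr at 37 °C, 5% CO2. Alamar Blue was then added for 4-6 hours; read at 544 nm.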

The structures appear in SMILES notation.

For `C=CC(=O)Nc1ccc(Sc2nc(Nc3ccc(OC)c(NS(C)(=O)=O)c3)ncc2C)cc1` [Compound 293, N-(4-(2-(4-methoxy-3-(methylsulfonamido)phenylao)-5-methylpyrimidin-4-ylthio)phenyl)acrylamide], the values for the GI50 (at BaF3 TELJAK3 cells; in test [1]) were below 1 µM and below 5 µM, respectively. The IC50 in the test with BaF3 wild-type cells was below 5 µM.
As to `Cc1cnc(Nc2ccc(N3CCOCC3)cc2)nc1Sc1c(C)cc(N)cc1C` [Compound 165, 4-(4-ao-2,6-dimethylphenylthio)-5-methyl-N-(4-morpholinophenyl)pyrimidin-2-ae], the GI50 (at BaF3 TELJAK3 cells; in test [1]) was above 20 µM in each case. In addition, the IC50 with BaF3 wild-type cells is above 20 µM.
Take `C=CC(=O)Nc1ccc(Sc2nc(Nc3ccc(C)c(Br)c3)ncc2C)cc1` [Compound 242, N-(4-(2-(3-bromo-4-methylphenylao)-5-methylpyrimidin-4-ylthio)phenyl)acrylamide]: the figures for the GI50 (on BaF3 TELJAK3 cells; in test [1]) were below 20 µM and above 20 µM, respectively. Moreover, the IC50 in the test with BaF3 wild-type cells is above 20 µM.
As to `C=CC(=O)Nc1ccc(Sc2nc(Nc3ccc(N4CCN(C)CC4)c(OC)c3)ncc2C)cc1` [Compound 249, N-(4-(2-(3-methoxy-4-(4-methylpiperazin-1-yl)phenylao)-5-methylpyrimidin-4-ylthio)phenyl)acrylamide], the GI50 is below 1 µM at BaF3 TELJAK3 cells and below 5 µM in test [1]. Also, the IC50 in the test with BaF3 wild-type cells was below 5 µM.
With `C=CC(=O)Nc1ccc(Sc2nc(Nc3ccc(N4CCC(O)C4)cc3)ncc2C)cc1` (stereo not drawn) [Compound 295, N-(4-(2-(4-(3-hydroxypyrrolidin-1-yl)phenylao)-5-methylpyrimidin-4-ylthio)phenyl)acrylamide], the GI50 is below 1 µM at BaF3 TELJAK3 cells and above 20 µM in test [1]. In addition, in the test on BaF3 wild-type cells, the IC50 was above 20 µM.
With `OCc1cccc(Sc2ccnc(Nc3ccc(N4CCOCC4)cc3)n2)c1` [Compound 62, (3-(2-(4-Morpholinophenylamino)pyrimidin-4-ylthio)phenyl)methanol], the GI50 (at BaF3 TELJAK3 cells; in test [1]) was below 20 µM throughout. In addition, the IC50 in the test on BaF3 wild-type cells was below 20 µM.
With `C=CC(=O)Nc1cccc(Sc2ccnc(Nc3ccc(N4CCOCC4)cc3)n2)c1` [Compound 23, N-(3-(2-(4-morpholinophenylamino)pyrimidin-4-ylthio)phenyl)acrylamide], the results for the GI50 (at BaF3 TELJAK3 cells; in test [1]) were below 1 µM and below 20 µM, respectively. Besides, in the test with BaF3 wild-type cells, the IC50 was below 20 µM.
For the compound `Cc1cnc(Nc2ccc(N3CCN(C)CC3)cc2)nc1Sc1ccc(N)cc1` [Compound 244, 4-(4-aophenylthio)-5-methyl-N-(4-(4-methylpiperazin-1-yl)phenyl)pyrimidin-2-ae], the GI50 (on BaF3 TELJAK3 cells; in test [1]) was below 5 µM in each case. Moreover, the IC50 in the test on BaF3 wild-type cells was below 5 µM.
Take `C=CC(=O)NCc1ccc(Sc2ccnc(Nc3ccc(N4CCOCC4)cc3)n2)cc1` [Compound 111, N-(4-(2-(4-morpholinophenylamino)pyrimidin-4-ylthio)benzyl)acrylamide]: the GI50 on BaF3 TELJAK3 cells was below 1 µM; in test [1], below 20 µM. Also, the IC50 in the test on BaF3 wild-type cells was below 20 µM.
For `C=CC(=O)Nc1ccc(Sc2ccnc(Nc3ccc(O)cc3)n2)cc1` [Compound 276, N-(4-(2-(4-hydroxyphenylao)pyrimidin-4-ylthio)phenyl)acrylamide], the figures for the GI50 (on BaF3 TELJAK3 cells; in test [1]) were below 1 µM and below 20 µM, respectively. In addition, in the test with BaF3 wild-type cells, the IC50 is below 20 µM.
With `Cc1cnc(Nc2ccc(N3CCOCC3)cc2)nc1Sc1ccc(N)cc1Cl` [Compound 251, 4-(4-ao-2-chlorophenylthio)-5-methyl-N-(4-morpholinophenyl)pyrimidin-2-ae], the GI50 (on BaF3 TELJAK3 cells; in test [1]) was above 20 µM throughout. Further, the IC50 in the test with BaF3 wild-type cells is above 20 µM.
With `C=CC(=O)Nc1ccc(Sc2nc(Nc3ccc(N4CCOCC4)cc3)ncc2C)c(C)c1` [Compound 163, N-(3-methyl-4-(5-methyl-2-(4-morpholinophenylao)pyrimidin-4-ylthio)phenyl)acrylamide], the GI50 is below 1 µM at BaF3 TELJAK3 cells and above 20 µM in test [1]. Besides, in the test on BaF3 wild-type cells, the IC50 was above 20 µM.
As for `C=CC(=O)N(C)c1ccc(Sc2nc(Nc3ccc(N4CCOCC4)cc3)ncc2Br)cc1` [Compound 261, N-(4-(5-bromo-2-(4-morpholinophenylao)pyrimidin-4-ylthio)phenyl)-N-methylacrylamide], the GI50 on BaF3 TELJAK3 cells was below 1 µM; in test [1], above 20 µM. Moreover, the IC50 in the test on BaF3 wild-type cells was above 20 µM.
For the compound `COc1ccc(Nc2ncc(C)c(Sc3ccc(N)cc3)n2)cc1OC` [Compound 240, 4-(4-aophenylthio)-N-(3,4-dimethoxyphenyl)-5-methylpyrimidin-2-ae], the GI50 (at BaF3 TELJAK3 cells; in test [1]) was below 5 µM throughout. For the same compound, the IC50 in the test on BaF3 wild-type cells is below 1 µM.
For `C=CC(=O)Nc1ccc(Sc2ccnc(Nc3cc(C)cc(C)c3)n2)cc1` [Compound 82, N-(4-(2-(3,5-dimethylphenylao)pyrimidin-4-ylthio)phenyl)acrylamide], the GI50 (at BaF3 TELJAK3 cells; in test [1]) was below 5 µM in each case. Also, the IC50 in the test on BaF3 wild-type cells was below 20 µM.
Turning to `N#Cc1nnn(Cc2ccc(Sc3ccnc(Nc4ccc(N5CCOCC5)cc4)n3)cc2)n1` [Compound 156, 2-(4-(2-(4-morpholinophenylao)pyrimidin-4-ylthio)benzyl)-2H-tetrazole-5-carbonitrile], the GI50 (on BaF3 TELJAK3 cells; in test [1]) was below 5 µM in each case. The IC50 with BaF3 wild-type cells is below 5 µM.
For the compound `C=CC(=O)Nc1ccc(Sc2nc(Nc3ccc(OC)c(OC)c3)ncc2C)cc1` [Compound 241, N-(4-(2-(3,4-dimethoxyphenylao)-5-methylpyrimidin-4-ylthio)phenyl)acrylamide], the figures for the GI50 (at BaF3 TELJAK3 cells; in test [1]) were below 1 µM and below 5 µM, respectively. Besides, the IC50 with BaF3 wild-type cells was below 20 µM.
On to `C=CC(=O)Nc1ccc(Sc2nc(Nc3ccc(N4CCOCC4)cc3)ncc2C)cc1C` [Compound 259], for which the results for the GI50 (at BaF3 TELJAK3 cells; in test [1]) were below 1 µM and below 20 µM, respectively. Moreover, in the test on BaF3 wild-type cells, the IC50 is below 20 µM.
For `C=CC(=O)Nc1cccc(Nc2nccc(Sc3ccc(OC)cc3)n2)c1` [Compound 42, N-(3-(4-(4-methoxyphenylthio)pyrimidin-2-ylao)phenyl)acrylamide], the GI50 is below 5 µM on BaF3 TELJAK3 cells and below 20 µM in test [1]. Besides, in the test with BaF3 wild-type cells, the IC50 was below 20 µM.
Turning to `O=C(/C=C/Cl)Nc1cccc(Sc2ccnc(Nc3ccc(N4CCOCC4)cc3)n2)c1` [Compound 340, (E)-3-chloro-N-(3-(2-(4-morpholinophenylao)pyrimidin-4-ylthio)phenyl)acrylamide], the results for the GI50 (at BaF3 TELJAK3 cells; in test [1]) were below 1 µM and below 20 µM, respectively. In addition, the IC50 with BaF3 wild-type cells was below 5 µM.
With `Cc1cnc(Nc2ccc(N3CCOCC3)cc2)nc1Sc1ccc(N2C(=O)C=C(Br)C2=O)cc1` [Compound 382, 3-bromo-1-(4-(5-methyl-2-(4-morpholinophenylao)pyrimidin-4-ylthio)phenyl)-1H-pyrrole-2,5-dione], the GI50 (on BaF3 TELJAK3 cells; in test [1]) was below 20 µM in each case. The IC50 with BaF3 wild-type cells is below 20 µM.
Regarding `C=CC(=O)Nc1ccc(Sc2nc(Nc3cccc(N4CCOCC4)c3)ncc2C)cc1` [Compound 237, N-(4-(5-methyl-2-(3-morpholinophenylao)pyrimidin-4-ylthio)phenyl)acrylamide], the GI50 is below 1 µM at BaF3 TELJAK3 cells and below 5 µM in test [1]. In the test with BaF3 wild-type cells, the IC50 was below 1 µM.

Source of the values: US8846704B2, “Thiopyrimidine-based compounds and uses thereof” (YM Biosciences Austraila Pty Ltd, priority 2007, dated 2014).
